Data taken from US6495331B1, “Regulation of cytokine production in a hematopoietic cell” (National Jewish Center for Immunology and Respiratory …, priority 1996, dated 2002).

Experiments:
Format in all cases: cell-based, mouse
JNK = JNK activity (GST-c-Jun kinase assay) in OVA-stimulated OVA-IgE-sensitized MC/9 cells
Method: MC/9 cells (5×10^6/ml) were cultured with 500 ng/ml anti-OVA IgE for 2 h. The cells were washed with medium three times and cultured with fresh medium for an additional 2 h. OVA dissolved in PBS or anti-IgE was added for the stimulation, and PBS was used as a control vehicle.
The activity of JNK was measured by monitoring the activity of a Glutathione S-transferase-c-Jun-(1-79) fusion protein. Cells (3×10^6) were lysed in a buffer (20 MM Tris-HCl, pH 7.6, 250 mM NaCl, 3 mM EDTA, 3 mM EGTA, 0.5% NP-40, 2 mM Na3VO4, 1 mM dithiothreitol (DTT), 1 mM phenylmethylsulfonyl fluoride (PMSF), 20 μg/ml aprotinin, 5 μg/ml leupeptin). The lysates were mixed with GST-c-Jun-Sepharose beads and rotated at 4° C. for 3 h. The beads were washed twice in lysis buffer and once in kinase assay buffer (20 mM Hepes, pH 7.5, 20 mM β-glycerophosphate, 10 mM MgCl2, 1 mM DTT, 50 mM Na3VO4, 10 mM p-nitrophenyl phosphate). After the final wash, 40 μl of a kinase assay buffer containing 10 μCi of γ-^32P-ATP (ICN Pharmaceuticals, Irvine, Calif.) were added per sample. […] The bands corresponding to GST-c-Jun were cut out of the gel, and radioactivity was determined by liquid scintillation counting. […]

p38 MAP kinase = p38 MAP kinase immunoprecipitation kinase assay (ATF-2 substrate) in OVA-stimulated sensitized MC/9 cells
Method: MC/9 cells sensitized with OVA-IgE were incubated in the presence of PBS (O min) or 10 μg/ml OVA for 1, 5, 15, 30, or 60 min. To immunoprecipitate p38 kinase, 3×10^6 cells were lysed by vigorous mixing in 0.4 ml of extraction buffer (1% Triton X-100, 10 mM Tris-HCl (pH 7.4), 5 mM EDTA, 50 mM NaCl, 50 mM […], 0.1% bovine serum albumin (BSA), 20 μg/ml aprotinin, 1 mM PMSF, and 2 mM Na3VO4). The lysate was incubated with the rabbit anti-serum raised against the COOH-terminal peptide sequence of p38 (1:400 dilution) for 2 h at 4° C. Recombinant protein G sepharose 4 B was added to the lysate and incubated for an additional 1 h at 4° C. The immunoprecipitates were washed once with extraction buffer, twice with PAN buffer (10 mM piperazine-N, N′-bis (2-ethanesulfonic acid) (PIPES, pH 7.0), 100 mM NaCl, 20 μg/ml aprotinin). […] The kinase activity was quantified with a PhosphorImager (Molecular Dynamics, Sunnyvale, Calif.).
MC/9 cells sensitized with OVA-IgE (3×10^6) were preincubated with either 1-1000 nM wortmannin or a control (0.01% DMSO) for 15 min and stimulated for 5 min by addition of 10 μg/ml OVA. […] The data are expressed as the percentage of p38 activity detected in the presence of 10 μg/ml OVA and 0.01% DMSO (*, p<0.05).

TNF-α production = TNF-α production by OVA-stimulated sensitized MC/9 cells, ELISA; conditions: then 10 μg/ml OVA 3 h
Method: An ELISA for TNF-α production was performed as follows. Purified rat anti-mouse TNF-α monoclonal antibody was diluted to 2 μg/ml in coating solution (0.1 M NaHCO3, pH 8.2) and 50 μg was added to wells of an ELISA plate (Dynatech Laboratories). […] After washing twice, standards (16 pg/ml −4 ng/ml recombinant mouse TNF-α) and samples were added at 100 μl per well and incubated overnight at 4° C. After washing four times, biotinylated rabbit anti-mouse TNF-α polyclonal antibody (1 μg/ml) was added to wells and incubated at room temperature for 45 min and wells were washed six times. […] ABTS (2,2′-Azino-bis(3-ethylbenzthiazoline-6-sulfonic acid) substrate (30 mg/ml 0.1 M citric acid, pH 4.35) containing 0.03% H2O2 was added at 100 μl per well and color reaction was allowed to develop at room temperature for 30 min. A plate was read at OD 410 nm and analyzed by Mycroplate Manager (Bio Rad, Hercules, Calif.).
MC/9 cells (1×10^6/ml) were incubated with 500 ng/ml mouse monoclonal IgE specific for OVA (OVA-IgE) for 2 h. […] After the incubation, the cell supernatant was harvested and TNF-α production was measured by ELISA.
The effect of wortmannin on TNF-α production in MC/9 cells was also examined. […] TNF-α in the medium was measured by ELISA.
MC/9 cells sensitized with OVA-IgE (1×10^6/ml) were incubated with 0.1% DMSO or 30 μM PD 098059 for 1 h. […] TNF-α in the medium was measured by ELISA.

human TNF-α promoter = assay: TNF-α promoter luciferase reporter pTNF(-1311)Luc in MC/9 cells stimulated by FcεRI aggregation
Method: The pXP1 plasmid containing full length of the human TNF-α promoter just upstream of the luciferase gene, designated pTNF(-1311)Luc, was provided by Dr. James S. Economou (Division of Surgical Oncology, UCLA School of Medicine, Los Angels, Calif.). pTNF(-1311)Luc was transfected into MC/9 by the DEAE-dextran method. 2×10^6 cells were washed once with 1×TBS (25 mM Tris, 137 mM NaCl, 5 mM KCl, 0.5 mM Na2HPO4, 0.49 MM MgCl2, 0.68 mM CaCl21 pH 7.5). Cells were suspended with 0.4 ml of 500 μg DEAE-dextran/4 μgDNA mixture and incubated at room temperature for 30 min. After washed with 1×TBS, cells were suspended with 10 ml of culture medium and plated on culture dish. […]
Luciferase activity was measured to measure TNF-α promoter activity. […] 30 μl of the lysate was mixed with the same volume of Luciferase Assay Substrate containing beetle luciferin as a substrate (Promega, Madison Wis.), and chemiluminescence was measured for 30 sec as relative light units by a luminometer (Monolight 2010, Analytical Luminescence Laboratory, San Diego, Calif.).
MC/9 cells transiently transfected by pTNF(-1311)Luc were passively sensitized with OVA-IgE, and incubated for an additional 15 h with 10 μg/ml OVA or PBS in the presence of 0.01% DMSO or 100 nM wortmannin. […] Luciferase activity in cell lysates was measured as relative light units (RLU) and standardized by control RLU (mean±S.D., N=4, p<0.01). […]

ERK2 [1] = assay: ERK2 in vitro kinase assay (32P incorporation into myelin basic protein) in OVA-stimulated sensitized MC/9 cells
Method: MC/9 cells sensitized with OVA-IgE (1×10^6/ml) were incubated with 0.1% DMSO (control and 0 nM) or 3-30 μM PD 098059 for 1 h and the reaction was stopped by centrifugation at 5 min after the stimulation. The cells were then incubated with 10 μg/ml OVA or PBS (control) for 5 min. Kinase activity of ERK2 was measured as ^32P incorporation into myelin basic protein (MBP).
In vitro kinase assay of ERK2 was carried out as described above with some minor modifications. 3×10^6 cells were lysed by vigorous mixing in 0.4 ml of lysis buffer (20 mM Tris-HCl (pH 8.0), 1% Triton X-100, 10% glycerol, 137 mM NaCl, 1.5 mM MgCl2, 1 mM EGTA, 50 mM NaF, 1 mM Na3VO4, 1 mM PMSF, 5 μg/ml leupeptin, and 10 μg/ml aprotinin). The lysate was incubated with anti-ERK2 antibody (2 μg/ml) for 2 hrs at 4° C. Recombinant protein G sepharose 4B was added to the lysate and incubated for an additional 1 hr at 4° C. The immune complexes were washed three times with lysis buffer, and once with kinase buffer (30 mM Tris-HCl (pH 8.0), 20 mM MgCl2, 2 mM MnCl2). For the in vitro kinase assay, the immune complex suspension was incubated with 9 μg myelin basic protein (MBP) and 10 μCi of [γ-^32P] ATP in kinase buffer in a final volume of 30 μl for 30 min at 30° C. […] The bands corresponding to MBP were cut out of the gel, and radioactivity was determined by liquid scintillation counting.

ERK2 [2] = assay: ERK2 phosphorylation by anti-ERK2 immunoblot in MC/9 cells; conditions: PD 098059, MC/9 cells
Method: After different treatments, 1×10^6 cells were lysed in buffer (150 mM NaCl, 1% Nonidet P-40, 0.5% deoxycholic acid sodium salt, 0.1% SDS, 50 mM Tris (pH 7.6), 10 μg/ml aprotinin, […] leupeptin, 1 mM phenylmethylsulfonyl fluoride). Samples were electrophoresed on SDS-10% polyacrylamide gels and proteins were transferred to nitrocellulose membranes. Membranes were incubated overnight in blocking buffer containing 1% BSA at 4° C. The monoclonal anti-ERK2 antibody (200 μg/69 μl, Upstate Biotechnology) was added to the blocking buffer (1:1000), and blots were incubated for an additional 1 h at room temperature. The blots were washed in TBST (25 mM Tris (pH 8.0), 125 mM NaCl, 0.025% Tween 20), and specific reactive proteins were detected by an enhanced chemiluminescence method, employing a sheep anti-mouse Ig antibody linked to horseradish peroxidase (Amersham Corp.).
1×10^6 cells were lysed in buffer (150 mM NaCl, 1% NP40, 0.5% deoxycholic acid sodium salt, 0.1% SDS, 50 mM Tris (pH 7.6), 10 μg/ml aprotinin, […] leupeptin, 1 mM PMSF). […] The blots were washed in TBST (25 mM Tris, pH 8.0, […] NaCl, 0.025% Tween 20) and specific reactive proteins were detected by an enhanced chemiluminescence method, employing a sheep anti-mouse Ig antibody linked to horseradish peroxidase (Amersham, Arlington Heights, Ill.).

| SMILES | JNK kinase activity, percentage of that observed in the absence of treatment (JNK; 100 nM wortmannin, 15 min preincubation, 10 μg/ml OVA 10 min, MC/9 cells) | decrease in p38 kinase activities (p38 MAP kinase; 100 nM-1 μM wortmannin, 15 min, then 10 μg/ml OVA 5 min) | decrease in TNF-α production (TNF-α production; 100 nM wortmannin, 15 min) | decrease in OVA-induced luciferase activity (TNF-α promoter) (human TNF-α promoter; 100 nM wortmannin, 10 μg/ml OVA 15 h) | effect on JNK activation (JNK; PD 098059, data not shown) | decrease in OVA-induced ERK2 activity (ERK2 [1]; 30 μM PD 098059, 1 h, then 10 μg/ml OVA 5 min) | effect on ERK2 activities (ERK2 [1]; 10-30 μM PD 098059, MC/9 cells) | effect on p38 activation (p38 MAP kinase; PD 098059, data not shown) | effect on TNF-α production (TNF-α production; 30 μM PD 098059, 1 h) | effect on OVA-induced luciferase activity (TNF-α promoter) (human TNF-α promoter; 30 μM PD 098059, 10 μg/ml OVA 15 h) | effect on ERK2 phosphorylation induced by aggregation of FcεRI (ERK2 [2]) |
| --- | --- | --- | --- | --- | --- | --- | --- | --- | --- | --- | --- |
| COC[C@H]1OC(=O)c2coc3c2[C@@]1(C)C1=C(C3=O)[C@@H]2CCC(=O)[C@@]2(C)C[C@H]1OC(C)=O [wortmannin] | 8% | 50-60% | 77% | 40% | – | – | – | – | – | – | – |
| COc1cccc(-c2cc(=O)c3ccccc3o2)c1N [PD 098059] | – | – | – | – | did not inhibit | 65% | significantly inhibited | did not inhibit | did not affect TNF-α production | enhanced OVA-induced luciferase activity | strongly inhibited |
